In US20220160688A1, “INHIBITION OF NAMPT AND/OR SARM1 FOR THE TREATMENT OF AXONAL DEGRADATION” (THE JOHNS HOPKINS UNIVERSITY, priority 2019, published 2022):
“Also recorded” adds a separate entry of the source.

What was measured:
[1] = tested on: Mouse dorsal root ganglion (DRG) cells; experiment: Microfluidic based axon degeneration assay (axotomy, degeneration index); format: cell-based; conditions: for efficacy against Wallerian degeneration compared with FK866: tested at different concentrations; for Optimized Concentration used (from dose response curves): tested 2 hours following axotomy
Description: A poly-dimethylsiloxane (PDMS)-based microfluidic device described by Hosmane and colleagues was used for these experiments (see, FIG. 16) (see, Hosmane, et al., Lab Chip 2010, 10, 741-747). This device provisions a perikaryal compartment where nerve cells are first placed and a juxtaposed array of 200 microchannels towards which axons grow and through which they traverse to reach a third axonal compartment. Mouse dorsal root ganglion (DRG) cells were prepared from E12-13 embryos and plated to the perikaryal compartment. After 6-7 days of culture at 37° C. and 5% CO2, axons were cut using a razor blade with vehicle or reagents. Images of the axonal compartment were taken at various time intervals at 20× magnification. Images were then analyzed for degeneration index (DI) which indicates percentage of fragmented axons over total axonal area, and drug-treated axons were compared to vehicle treated or uninjured axons. Live time-lapse images were taken as needed.

[2] = tested on: mice injured with impact-acceleration; experiment: Pellet-reaching task after impact-acceleration traumatic brain injury; format: in vivo, mouse; conditions: drug administered continuously for 14 days post injury (osmotic pump); vs vehicle-treated mice
Description: Experiments were conducted to characterize the effects of SARM1 deletion or pharmacological SARM1 blockade on corticospinal-dependent motor deficits after traumatic brain injury (impact-acceleration). This was tested on the pellet-reaching task, i.e. the golden-standard to assess skilled function of the forelimbs in rodents relevant to a similar task used to assess fine motor function in humans. Specifically, experiments trained mice for 2 weeks before TBI in order to reach peak performance in the task. At that point the trained mice were injured with impact-acceleration. Experiments next measured their performance every day for two weeks post injury and comparisons were made between groups of mice administered FK866 and vehicle treated mice (control group).
Mice were placed under food restriction or 2 days to lose approximately 10% of their body weight. Following this, the shaping phase of the experiment was initiated: two mice were placed in the training chamber comprised of a clear Plexiglas chamber with ample food for 20 minutes for the first day, whereas one mouse was placed in the same chamber on day 2. The training chamber has a single slit through which the mouse can retrieve a pellet of food placed on the outside right in front of the slit. […] Retrieval attempts were recorded and characterized as successful only if a mouse retrieved the pellet and put it in its mouth. […]

[3] = tested on: IA-injured Thy1-eYFP-H mice; experiment: CLARITY-based counts of axonal lesions in the CST after impact acceleration (IA) injury; format: in vivo, mouse; conditions: FK866 10 mg/kg i.p. immediately after injury then every 6 h, vs vehicle
Description: IA injury was produced under gas anesthesia with 2% isoflurane. Under aseptic conditions and with the subject in a small-animal stereotactic frame, a 5-mm-diameter steel disc was glued on the exposed cranium between bregma and lambda to prevent skull fracture. The mouse was then placed prone on a foam bed under a hollow Plexiglas tube and secured with tape as described previously (see, Xu L, (2016) Exp Neurol 275:436-449). Injury was produced by dropping a brass weight from a height of 1 m through the Plexiglas tube onto the disk. In all cases except the impact dose-response study outlined below, that weight was 60 g. The foam bed was pulled immediately at the rebound of the weight off the metal disc, such as to prevent a second impact. The metal disc was then removed, scalp incision was closed with surgical staples, and the animal returned to cage for full recovery. Subjects with skull fractures confirmed with a surgical microscope were excluded from the study. […]
For 3D visualization and quantitative analysis of axonal injury of cleared brainstems, we used the software suite Imaris (Bitplane). […] For the detection and quantification of axonal swellings based on YFP and APP, the spot detection function for the whole CST volume from the pons to the pyramidal decussation or cervical spinal cord was used. […]

Row | SMILES | efficacy against Wallerian degeneration compared with FK866 ([1]; axotomized DRG axons) | Optimized Concentration used (from dose response curves) [1] | also measured
1 | NC(=O)c1ccc[n+]([C@@H]2O[C@H](COP(=O)([O-])O)[C@@H](O)[C@H]2O)c1 [NMN, nicotinamide mononucleotide] | – | – | effect of added NMN on the protection by NAMPT inhibition (FK866) ([1]; FK866 at time of injury, NMN added 0, 2, 4 hours post axotomy): reversed
2 | CC(C)(C)c1ccc(S(=O)(=O)NCc2ccc(C(=O)Nc3cccnc3)cc2)cc1 [STF31] | comparably strong efficacy | 2000 nM | –
3 | Cc1ccc(S(=O)(=O)Cc2nc(-c3ccc(C(=O)NCc4cccnc4)cc3)oc2C)cc1 [STF118804] | comparably strong efficacy | 250 nM | –
4 | O=C(/C=C/c1cccnc1)NCCCCC1CCN(C(=O)c2ccccc2)CC1 [FK866] | – | 100 nM | skilled motor function (pellet-reaching performance) [2]: significant preservation of skilled motor function; also recorded: maintain their pellet-reaching skill; number (density) of axonal lesions per anatomical segment (CST×RST, pyramidal decussation, cervical cord) ([3]; 24 h after injury): significantly lower number of axonal lesions; total number of axonal lesions in the CST from the pons to cervical spinal cord ([3]; counted 24 h after injury, 10 mg/kg): significantly lower number of axonal lesions; also recorded: smaller number of axonal lesions; optimal therapeutic window of treatment onset ([1]; FK866 given at 0, 2, 4, 6 hours following injury): within two to six hours of injury; delay of further fragmentation ([1]; axotomized DRG axons, treatment after the onset of visible fragmentation): still effective in delaying further fragmentation; protection against Wallerian degeneration (degeneration index) ([1]; axotomized DRG axons, treatment at 2 hours post-injury): Maximum protection against WD
5 | N#CN=C(NCCCCCCOc1ccc(Cl)cc1)Nc1ccncc1 [CHS-828] | comparably strong efficacy | 250 nM | –
6 | O=C(CCCCCCCn1cc(-c2cccnc2)nn1)Nc1ccccc1-c1ccccc1 [GPP78] | comparably strong efficacy | 1000 nM | –
7 | NC(=O)c1ccc[n+]([C@@H]2O[C@H](CO)[C@@H](O)[C@H]2O)c1 [NAR, nicotinamide riboside] | – | – | effect of added NAR on the protective effect of FK866 ([1]; FK866 and/or NAR at the time of injury): further augmented the protective effect of FK866
